Experimental data published in patent US8658591B2, “Multi-LEU peptides and analogues thereof as selective PACE4 inhibitors and effective antiproliferative agents” (priority 2008, dated 2014).
Several values for one entry are separate records, joined by “and”; a condition that tells them apart may be missing. Equal values may be shown once.

Legend:
PC7 = molecular target: T1, PC7 (Homo sapiens, UniProt Q16549); assay: Enzyme inhibition assay, fluorogenic substrate, PC7; assay type: biochemical; settings: 20 mM Bis-Tis pH 6.5, 1 mM CaCl2, substrate 250 μM, 37° C.
T1 sequence (Q16549 142-785): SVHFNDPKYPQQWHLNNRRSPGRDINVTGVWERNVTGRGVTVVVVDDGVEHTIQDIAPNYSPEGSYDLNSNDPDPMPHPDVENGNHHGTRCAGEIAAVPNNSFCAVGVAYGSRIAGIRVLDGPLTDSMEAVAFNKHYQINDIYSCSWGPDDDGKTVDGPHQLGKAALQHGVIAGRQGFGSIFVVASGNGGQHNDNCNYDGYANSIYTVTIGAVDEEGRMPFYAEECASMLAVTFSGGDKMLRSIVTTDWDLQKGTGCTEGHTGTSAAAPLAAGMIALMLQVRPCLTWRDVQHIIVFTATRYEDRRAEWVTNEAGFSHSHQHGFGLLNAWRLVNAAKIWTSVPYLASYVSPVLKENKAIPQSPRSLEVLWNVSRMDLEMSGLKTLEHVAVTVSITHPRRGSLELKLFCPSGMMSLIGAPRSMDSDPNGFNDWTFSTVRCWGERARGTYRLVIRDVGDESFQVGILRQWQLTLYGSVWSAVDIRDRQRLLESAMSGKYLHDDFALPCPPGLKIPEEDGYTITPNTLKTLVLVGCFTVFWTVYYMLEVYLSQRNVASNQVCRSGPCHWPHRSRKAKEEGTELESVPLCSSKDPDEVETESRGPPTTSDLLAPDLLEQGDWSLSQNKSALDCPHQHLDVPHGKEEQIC
Method: (§1) Enzyme inhibition assays for furin (FIG. 5D) were performed in 100 mM Hepes pH 7.5, 1 mM CaCl2, 1 mM β-mercaptoethanol, 0.5 μg/μL BSA. Assays for PC2 (FIG. 5E) were performed in 20 mM Bis-Tris pH 5,7, 1 mM CaCl2, 0.1% Brij-30. Assays for PC1/3, PC4, PACE4, PC5/6 and PC7 (FIGS. 5F, G, A, B and C respectively) were performed in 20 mM Bis-Tis pH 6.5, 1 mM CaCl2. All assays were performed with the substrate pyroGlu-Arg-[…]-Lys-Arg-methyl-coumaryl-7-amide (SEQ ID NO: 33) (PyrRTKR-MCA (SEQ ID NO: 34)) (Bachem, CA) at 100 μM for furin, PC1/3, PC4, PACE4 and PC5/6, 200 μM for PC2 and 250 μM for PC7. Assays were carried out at 37° C. for 30-60 min and real-time fluorescence was measured with an excitation wavelength of 370 nm and an emission wavelength of 460 nm using a Gemini XS™ 96-well spectrofluorometer and SoftMaxPro4™ software (Molecular Devices, CA). Inhibitory peptides were added to the enzymes at decreasing concentrations from 100 μM to 50 nM and incubated 5 minutes prior to the addition of substrate.

[1] = system: 4-2 cells (DU145 transfected with PACE4-SOFA-δRz); assay: Annexin-V-FITC/propidium iodide apoptosis assay, 4-2 cells; assay type: cell-based, human; settings: 66 μM, 48 h
Method: To determine if the reduced cell number observed in the 4-2 cell line, described previously in Example 3, was a consequence of the induction of the apoptosis, the translocation of phosphatidylserine from the inner to the outer leaflet of the plasma membrane was analyzed. This analysis was performed with a FITC-conjugated annexin-V, which has a strong affinity for these extracellular phosphatidylserines, and the fluorescent intercalating agent propidium iodide (PI). Cell lines were seeded in a 6-well plate at a density of 8×10^4 cells/well in complete growth medium. The next day, cells were washed twice with PBS and complete growth media with or without cisplatin (Sigma) at final concentration of 66 μM were added. After a 48 hours incubation period, growth media were collected and combined to the harvested cells obtained after trypsin treatment. The collected pellets were washed with PBS before staining. Then, cells were stained with the Annexin-V-FLUOS™ Staining Kit (Roche Applied science), which double labeled cells with annexin-V-fluorescein isothiocyanate (FITC) and propidium iodide (PI). Stained cells were then analyzed with FACScan flow cytometer (BD Biosciences).

DU145 cells = assay: Annexin-V-FITC/propidium iodide apoptosis assay, DU145; assay type: cell-based, human; settings: DU145, 66 μM, 48 h
Method: The annexin V assay is based on the observation that soon after initiating apoptosis, cells translocate the membrane phosphatidylserine from the inner face of the plasma membrane to the cell surface. Once on the cell surface, phosphatidylserine can be easily detected by staining with a fluorescent conjugate of Annexin V, a protein that has a high affinity for phosphatidylserine. Detection is analyzed by flow cytometry. […] This analysis was performed with a FITC-conjugated annexin-V, which has a strong affinity for these extracellular phosphatidylserines, and the fluorescent intercalating agent propidium iodide (PI). Cell lines were seeded in a 6-well plate at a density of 8×10^4 cells/well in complete growth medium. The next day, cells were washed twice with PBS and complete growth media with or without cisplatin (Sigma) at final concentration of 66 μM were added. After a 48 hours incubation period, growth media were collected and combined to the harvested cells obtained after trypsin treatment. The collected pellets were washed with PBS before staining. Then, cells were stained with the Annexin-V-FLUOS™ Staining Kit (Roche Applied science), which double labeled cells with annexin-V-fluorescein isothiocyanate (FITC) and propidium iodide (PI). Stained cells were then analyzed with FACScan flow cytometer (BD Biosciences).

[2] = system: gliobastoma cell line U251; assay: MTT cell proliferation index, U251; assay type: cell-based, human
Method: (§2) The effects of the PACE4 inhibitors on cell proliferation were evaluated. MTT assay was used to evaluate the effects of PACE4 inhibitors on cell proliferation. MTT (3-(4,5-Dimethylthiazol-2-yl)-2,5-diphenyltetrazolium bromide) assay is a standard colorimetric assay for measuring cellular proliferation. Yellow MTT is reduced to purple formazan in the mitochondria of living cells. This reduction takes place only when mitochondrial reductase enzymes are active. Conversion is directly related to the number of viable cells. The MTT assay is quantitative and more sensitive than viability using trypan blue and can also be adapted to 96 well formats, whereas trypan blue tests must be read individually. […]
(§3) The index of cellular proliferation of cells treated with the ML and acetyl-ML (CH3CO—NH-[…]-CONH2 (SEQ ID NO: 5), see Table 2) peptides were measured using the colorimetric MTT assay (thiazolyl blue tetrazolium bromide; Sigma-Aldrich). […]
(§4) 48 hours later, 20 μl of a MTT solution (5 mg/ml in PBS 1×) was added to each well for 4.5 h at 37° C./5% CO2. […] The absorbance was measured at a wavelength of 550 nm with a reference at 650 nm in microplate reader (SpectraMax190™; Molecular Devices).

[3] = system: sarcofibroma cell line HT1080; assay: MTT cell proliferation index, HT1080; assay type: cell-based, human
Method: as §2, §3, §4

[4] = system: prostatic cell line DU145; assay: MTT cell proliferation index, DU145; assay type: cell-based, human; settings: control = 100%, MTT after 48 hours
Method: The effects of the PACE4 inhibitors on cell proliferation were evaluated. MTT assay was used to evaluate the effects of PACE4 inhibitors on cell proliferation. MTT (3-(4,5-Dimethylthiazol-2-yl)-2,5-diphenyltetrazolium bromide) assay is a standard colorimetric assay for measuring cellular proliferation. Yellow MTT is reduced to purple formazan in the mitochondria of living cells. This reduction takes place only when mitochondrial reductase enzymes are active. Conversion is directly related to the number of viable cells. The MTT assay is quantitative and more sensitive than viability using trypan blue and can also be adapted to 96 well formats, whereas trypan blue tests must be read individually. Because the MTT assay requires less cell manipulation than [^3H]thymidine incorporation assays (no cell harvesting or medium changes are necessary), the possibility of error is reduced and the standard deviation values are lower. […] Other assays also known can be used to determine the effects of an inhibitor on the proliferation of a cell.
The index of cellular proliferation of cells treated with the ML and acetyl-ML (CH3CO—NH-[…]-CONH2 (SEQ ID NO: 5), see Table 2) peptides were measured using the colorimetric MTT assay (thiazolyl blue tetrazolium bromide; Sigma-Aldrich). Briefly, cells were seeded in 96-well plate (BD Biosciences) in triplicate with 100 μl of a 3.5×10^4 cells/ml cell suspension in complete growth medium. The following day, cells were carefully washed twice with PBS and media were replaced with 100 μl of either RPMI or conditioned growth media. Conditioned growth medium preparation consists in 1.2×10^5 cells seeded in 6-well plates with complete growth media. The next day, cells are washed twice with PBS and the media are replaced with 1 ml RPMI growth medium. 48 hours later, the conditioned media are collected, filtered through […] syringe filter units and incubated on different cell lines.
48 hours later, 20 μl of a MTT solution (5 mg/ml in PBS 1×) was added to each well for 4.5 h at 37° C./5% CO2. The media was then discarded and the cells were solubilized with 100 μl isopropanol/0.04 N HCl solution. The absorbance was measured at a wavelength of 550 nm with a reference at 650 nm in microplate reader (SpectraMax190™; Molecular Devices).

PACE4 = molecular target: T2, PACE4 (Homo sapiens, UniProt P29122); assay: Enzyme inhibition assay, fluorogenic substrate, PACE4; assay type: biochemical
T2 sequence (P29122 150-969): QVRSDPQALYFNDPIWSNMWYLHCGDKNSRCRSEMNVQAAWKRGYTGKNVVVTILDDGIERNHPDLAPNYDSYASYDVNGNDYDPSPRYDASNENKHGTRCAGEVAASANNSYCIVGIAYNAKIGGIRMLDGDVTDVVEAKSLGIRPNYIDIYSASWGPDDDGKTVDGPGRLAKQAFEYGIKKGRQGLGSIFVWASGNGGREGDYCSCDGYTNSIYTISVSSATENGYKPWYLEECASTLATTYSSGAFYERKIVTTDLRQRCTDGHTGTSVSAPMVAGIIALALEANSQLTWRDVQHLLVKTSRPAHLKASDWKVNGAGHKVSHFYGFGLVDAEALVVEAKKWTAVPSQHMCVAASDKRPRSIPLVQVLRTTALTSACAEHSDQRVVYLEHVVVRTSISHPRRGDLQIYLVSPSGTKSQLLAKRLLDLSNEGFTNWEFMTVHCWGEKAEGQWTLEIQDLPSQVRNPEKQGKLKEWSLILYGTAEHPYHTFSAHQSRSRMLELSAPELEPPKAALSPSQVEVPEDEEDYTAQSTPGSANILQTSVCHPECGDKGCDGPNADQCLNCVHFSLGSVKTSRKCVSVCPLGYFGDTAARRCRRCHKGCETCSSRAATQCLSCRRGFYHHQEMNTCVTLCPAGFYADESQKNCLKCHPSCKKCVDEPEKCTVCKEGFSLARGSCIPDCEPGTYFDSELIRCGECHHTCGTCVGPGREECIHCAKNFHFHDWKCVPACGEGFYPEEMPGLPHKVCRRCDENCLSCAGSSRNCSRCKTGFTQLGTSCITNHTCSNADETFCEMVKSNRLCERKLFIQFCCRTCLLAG
Excerpt: Those skilled in the art can easily determine PACE4 activity using routine experimentation. For example, the activity assay of PACE4 can be carried out in 96 well plates, and includes the use of a fluorogenic substrate, namely PyrRTKR-AMC (SEQ ID NO: 30) (AMC is amino-methyl-coumarin). The substrate and the purified enzyme are placed in the wells, and depending on the units of enzyme present, the AMC moiety will be cleaved at a certain rate, such a pmoles/sec. The resultant free AMC is now fluorescent and can be detected with a spectrofluorometer. The addition of inhibitors to the assay will yield progress curves that have lesser slopes. Based on these changes the inhibitory constants (Ki) is calculated (Fugere et al., 2002, J. Biol. Chem., 277:7648-56).
as §1

PC1/3 = molecular target: T3, PC1/3 (Homo sapiens, UniProt P29120); assay: Enzyme inhibition assay, fluorogenic substrate, PC1/3; assay type: biochemical
T3 sequence (P29120 111-753): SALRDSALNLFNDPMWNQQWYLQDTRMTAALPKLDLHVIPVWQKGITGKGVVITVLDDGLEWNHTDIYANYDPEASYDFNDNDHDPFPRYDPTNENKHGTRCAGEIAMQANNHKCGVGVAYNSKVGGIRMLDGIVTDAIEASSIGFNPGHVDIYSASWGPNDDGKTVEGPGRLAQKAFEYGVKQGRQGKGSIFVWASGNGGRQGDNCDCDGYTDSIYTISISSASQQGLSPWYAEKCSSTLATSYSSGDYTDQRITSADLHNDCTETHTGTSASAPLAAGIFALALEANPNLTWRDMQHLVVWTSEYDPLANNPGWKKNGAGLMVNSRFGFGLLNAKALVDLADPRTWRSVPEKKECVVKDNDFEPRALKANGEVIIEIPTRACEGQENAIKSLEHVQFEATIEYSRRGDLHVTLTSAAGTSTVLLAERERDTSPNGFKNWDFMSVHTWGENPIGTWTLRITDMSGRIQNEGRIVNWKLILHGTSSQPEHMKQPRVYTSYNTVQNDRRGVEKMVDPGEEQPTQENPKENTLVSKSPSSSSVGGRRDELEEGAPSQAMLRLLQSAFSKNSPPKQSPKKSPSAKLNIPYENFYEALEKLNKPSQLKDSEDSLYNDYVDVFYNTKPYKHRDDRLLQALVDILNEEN
Method: as §1

PC5/6 = PC5/6 (Homo sapiens, UniProt Q92824); assay: Enzyme inhibition assay, fluorogenic substrate, PC5/6; assay type: biochemical
Chain of PC5/6 (Q92824 115-1860): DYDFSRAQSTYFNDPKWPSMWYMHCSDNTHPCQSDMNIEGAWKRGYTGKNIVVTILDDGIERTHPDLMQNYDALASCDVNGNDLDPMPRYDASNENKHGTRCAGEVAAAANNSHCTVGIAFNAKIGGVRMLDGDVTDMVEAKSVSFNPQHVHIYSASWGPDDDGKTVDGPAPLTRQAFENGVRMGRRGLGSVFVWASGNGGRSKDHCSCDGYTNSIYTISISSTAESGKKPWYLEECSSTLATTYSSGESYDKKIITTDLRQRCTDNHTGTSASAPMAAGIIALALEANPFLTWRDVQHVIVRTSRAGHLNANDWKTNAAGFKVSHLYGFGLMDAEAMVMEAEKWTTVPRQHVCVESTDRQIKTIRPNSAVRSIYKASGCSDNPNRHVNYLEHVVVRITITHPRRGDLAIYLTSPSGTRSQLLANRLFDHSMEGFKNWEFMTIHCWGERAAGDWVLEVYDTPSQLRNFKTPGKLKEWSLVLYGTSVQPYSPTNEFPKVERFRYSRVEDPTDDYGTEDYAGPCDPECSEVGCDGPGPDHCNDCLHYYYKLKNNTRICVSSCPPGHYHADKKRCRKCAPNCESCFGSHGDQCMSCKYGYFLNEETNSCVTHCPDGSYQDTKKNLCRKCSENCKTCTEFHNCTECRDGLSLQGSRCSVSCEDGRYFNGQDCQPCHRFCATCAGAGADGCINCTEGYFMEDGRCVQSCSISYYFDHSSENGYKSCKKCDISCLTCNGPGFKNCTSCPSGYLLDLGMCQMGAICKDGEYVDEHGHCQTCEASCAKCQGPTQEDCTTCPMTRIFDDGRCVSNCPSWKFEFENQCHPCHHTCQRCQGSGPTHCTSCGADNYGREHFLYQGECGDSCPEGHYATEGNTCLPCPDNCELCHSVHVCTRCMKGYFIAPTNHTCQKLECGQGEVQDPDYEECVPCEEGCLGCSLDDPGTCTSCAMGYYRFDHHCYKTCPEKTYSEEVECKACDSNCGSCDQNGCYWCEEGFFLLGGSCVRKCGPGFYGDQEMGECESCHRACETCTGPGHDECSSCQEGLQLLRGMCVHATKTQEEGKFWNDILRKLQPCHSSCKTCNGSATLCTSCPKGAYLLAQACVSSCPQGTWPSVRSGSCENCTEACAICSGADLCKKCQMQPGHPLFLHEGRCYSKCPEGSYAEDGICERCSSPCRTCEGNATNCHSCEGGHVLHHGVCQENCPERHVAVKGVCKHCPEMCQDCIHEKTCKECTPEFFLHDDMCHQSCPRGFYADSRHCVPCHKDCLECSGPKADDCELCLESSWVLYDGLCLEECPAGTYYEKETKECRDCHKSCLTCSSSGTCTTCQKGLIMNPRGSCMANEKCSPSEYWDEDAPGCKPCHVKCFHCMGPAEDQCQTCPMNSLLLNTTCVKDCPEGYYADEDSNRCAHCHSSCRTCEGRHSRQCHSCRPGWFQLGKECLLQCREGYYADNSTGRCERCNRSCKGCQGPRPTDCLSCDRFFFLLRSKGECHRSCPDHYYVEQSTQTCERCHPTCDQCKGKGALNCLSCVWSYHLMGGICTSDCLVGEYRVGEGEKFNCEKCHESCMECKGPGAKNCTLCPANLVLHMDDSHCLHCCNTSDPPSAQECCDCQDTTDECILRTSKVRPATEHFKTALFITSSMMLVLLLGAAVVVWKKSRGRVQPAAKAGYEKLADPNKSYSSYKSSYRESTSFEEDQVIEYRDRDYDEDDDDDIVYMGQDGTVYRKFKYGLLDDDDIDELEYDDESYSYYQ
Method: as §1

furin = furin (Homo sapiens, UniProt P09958); assay: Enzyme inhibition assay, fluorogenic substrate, furin; assay type: biochemical
Chain of furin (P09958 108-794, species assumed): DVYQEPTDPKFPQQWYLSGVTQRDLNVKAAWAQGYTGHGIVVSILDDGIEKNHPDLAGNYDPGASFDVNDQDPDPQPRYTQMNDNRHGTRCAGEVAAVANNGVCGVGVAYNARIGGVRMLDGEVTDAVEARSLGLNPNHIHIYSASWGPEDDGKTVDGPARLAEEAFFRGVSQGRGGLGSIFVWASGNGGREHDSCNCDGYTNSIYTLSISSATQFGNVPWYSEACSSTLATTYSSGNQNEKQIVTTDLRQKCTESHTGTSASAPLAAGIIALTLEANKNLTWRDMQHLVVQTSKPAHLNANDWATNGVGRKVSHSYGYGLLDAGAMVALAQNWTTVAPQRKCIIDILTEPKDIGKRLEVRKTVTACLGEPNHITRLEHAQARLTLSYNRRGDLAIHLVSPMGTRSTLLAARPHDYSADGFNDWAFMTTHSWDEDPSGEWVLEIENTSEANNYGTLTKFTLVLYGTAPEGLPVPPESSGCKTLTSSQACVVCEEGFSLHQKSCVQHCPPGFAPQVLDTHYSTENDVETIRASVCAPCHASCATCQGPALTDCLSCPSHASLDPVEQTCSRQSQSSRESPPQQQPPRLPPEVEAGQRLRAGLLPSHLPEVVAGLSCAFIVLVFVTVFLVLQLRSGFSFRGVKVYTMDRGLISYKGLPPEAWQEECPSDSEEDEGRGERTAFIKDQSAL
Method: as §1

Row | Ki (PC7) | inhibition potency on furin, in words (furin) | Compound | effect on cell proliferation index, in words [2] | effect on cell proliferation index, in words [3] | Cell proliferation index ([4]; DU145, 1 μM peptide) [%] | Cell proliferation index ([4]; DU145, 10 μM peptide) [%] | Cell proliferation index ([4]; DU145, 50 μM peptide) [%] | Cell proliferation index ([4]; DU145, 100 μM peptide) [%] | other results
1 | 35 to 50 nM | – | CC(C)C[C@H](NC(=O)[C@H](CC(C)C)NC(=O)[C@H](CC(C)C)NC(=O)[C@@H](N)CC(C)C)C(=O)N[C@@H](CC(C)C)C(=O)N[C@@H](CCCNC(=N)N)C(=O)N[C@H](C(=O)N[C@@H](CCCCN)C(=O)N[C@@H](CCCNC(=N)N)C(N)=O)C(C)C [5 Leu] | – | – | – | – | – | – | –
2 | – | – | N.N.[Cl][Pt][Cl] [cisplatin] | – | – | – | – | – | – | annexin-V positivity ([1]; untreated 3%): 17%; PI staining (dead cells) ([1]; untreated 7%): 16%; annexin-V positivity (DU145 cells; untreated 2%): 30%; PI staining (dead cells) (DU145 cells; untreated 6%): 12%
3 | – | – | CH3CO—NH-LLLLRVKR-NH2 (Ac-LLLLRVKR-NH2) [acetyl ML] | significant effects | significant effects | 63.84 | 41.91 | 25.79 | 24.05 | –
4 | 35 to 50 nM and 50 nM | – | H-LLLLRVKR-NH2 [ML] | significant effects | significant effects | 97.73 | 92.03 | 72.57 | 54.70 | inhibition potency on PACE4, in words (PACE4): nanomolar range; Ki (PACE4; 20 mM Bis-Tis pH 6.5, 1 mM CaCl2, substrate 100 μM, 37° C.): 6 nM; more effective on PACE4 than the other PCs (PACE4; ratio of Ki values, other PCs vs PACE4): ≥ 9 folds
5 | – | mid-nanomolar inhibitors | LLRVKR [LLRVKR—NH2, LLRVKR-NH2] | – | – | – | – | – | – | inhibition potency on PC1/3, in words (PC1/3): best inhibited; inhibition potency on PC5/6, in words (PC5/6): mid-low nanomolar range
6 | – | mid-nanomolar inhibitors | LRVKR [LRVKR—NH2, LRVKR-NH2] | – | – | – | – | – | – | –
